Active and inactive are the calls of the source.
Assays:
[1] = Counterscreen for inhibitors of Trypanosoma brucei methionyl tRNA synthetase (MetRS): Luminescence-based cell-based high throughput dose response assay to identify compounds that are cytotoxic to Jurkat human T lymphocyte cells.; type: functional
[2] = target: T1, Methionyl-tRNA synthetase, putative (Trypanosoma brucei brucei, UniProt Q38C91); type: functional, Trypanosoma brucei brucei strain 927/4 GUTat10.1;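 also: Read-out by fluorescence polarization, run as a confirmatory high-throughput counterscreen; potency of MetRS inhibitors measured by reduced AMP formation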
T1 sequence (Q38C91 whole entry): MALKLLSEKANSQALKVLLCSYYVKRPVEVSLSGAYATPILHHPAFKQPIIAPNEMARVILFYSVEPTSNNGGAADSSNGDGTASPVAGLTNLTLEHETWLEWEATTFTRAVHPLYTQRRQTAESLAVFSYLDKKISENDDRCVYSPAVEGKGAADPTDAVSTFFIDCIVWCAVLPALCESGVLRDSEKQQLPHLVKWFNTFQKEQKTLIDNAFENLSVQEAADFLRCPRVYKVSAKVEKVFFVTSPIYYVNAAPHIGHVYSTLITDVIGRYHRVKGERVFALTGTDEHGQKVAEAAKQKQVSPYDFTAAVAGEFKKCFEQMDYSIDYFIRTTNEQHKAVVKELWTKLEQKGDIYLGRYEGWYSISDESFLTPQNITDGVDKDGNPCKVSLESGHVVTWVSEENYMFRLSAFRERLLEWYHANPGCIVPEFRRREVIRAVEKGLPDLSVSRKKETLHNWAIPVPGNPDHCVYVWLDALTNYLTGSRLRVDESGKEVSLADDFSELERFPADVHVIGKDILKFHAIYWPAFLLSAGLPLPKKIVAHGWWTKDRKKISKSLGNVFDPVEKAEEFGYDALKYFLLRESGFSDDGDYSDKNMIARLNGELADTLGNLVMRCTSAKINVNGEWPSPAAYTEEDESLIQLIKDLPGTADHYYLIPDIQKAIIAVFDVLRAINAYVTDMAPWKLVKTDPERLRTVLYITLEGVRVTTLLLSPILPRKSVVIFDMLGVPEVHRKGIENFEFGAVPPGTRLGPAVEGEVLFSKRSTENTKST

[3] = bead-based luminescence quenchers, dual-tagged ARNT – biochemical, AlphaScreen, cherry-pick, artefact control for ARNT-TACC3 interaction inhibitor project, dose response (AID 651705); type: functional;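 also: AlphaScreen bead proximity signal that flags compounds interfering with the detection technology; potency reflects signal decrease which marks the compound as an assay artifact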
Nonstructural protein 1 = Nonstructural protein 1 (Influenza A virus, UniProt Q194T2); type: functional, Influenza A virus (A/California/07/2009(H1N1))
[4] = target: Adenosylmethionine-8-amino-7-oxononanoate aminotransferase (Mycobacterium tuberculosis, UniProt P9WQ81); test: Mycobacterium tuberculosis BioA enzyme inhibitor Measured in Biochemical System Using Plate Reader - 2163-02_Inhibitor_Dose_CherryPick_Activity.; type: functional, Mycobacterium tuberculosis UT205
[5] = nonselective StAR promoter luciferase inhibitors – cell-based, luminescence, luciferase reporter, counter-screen for LRH-1 inverse agonist project, dose response (AID 651969); type: functional
[6] = target: Nuclear receptor subfamily 5 group A member 2 (Homo sapiens, UniProt O00482); type: functional, cell-based;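 also: HEK293T cells transfected with LRH-1 and a StAR promoter luciferase reporter; potency for inhibitors that lower LRH-1 driven reporter light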
Steroidogenic factor 1 = Steroidogenic factor 1 (Homo sapiens, UniProt Q13285); test: Counterscreen for inverse agonists of the liver receptor homolog-1 (LRH-1; NR5A2): Luminescence-based cell-based high throughput dose response assay to identify inverse agonists of the Steroidogenic Factor 1 Nuclear Receptor (SF1; NR5A1).; type: functional
[7] = target: T2, Corticotropin-releasing factor receptor 2/Corticotropin-releasing factor-binding protein (Homo sapiens, UniProt P24387+Q13324); test: Dose Response confirmation of uHTS hits for small molecule antagonists of the CRF-binding protein and CRF-R2 receptor complex.; type: functional; settings: read-out: IC50_Mean
T2 sequence (Q13324 whole entry): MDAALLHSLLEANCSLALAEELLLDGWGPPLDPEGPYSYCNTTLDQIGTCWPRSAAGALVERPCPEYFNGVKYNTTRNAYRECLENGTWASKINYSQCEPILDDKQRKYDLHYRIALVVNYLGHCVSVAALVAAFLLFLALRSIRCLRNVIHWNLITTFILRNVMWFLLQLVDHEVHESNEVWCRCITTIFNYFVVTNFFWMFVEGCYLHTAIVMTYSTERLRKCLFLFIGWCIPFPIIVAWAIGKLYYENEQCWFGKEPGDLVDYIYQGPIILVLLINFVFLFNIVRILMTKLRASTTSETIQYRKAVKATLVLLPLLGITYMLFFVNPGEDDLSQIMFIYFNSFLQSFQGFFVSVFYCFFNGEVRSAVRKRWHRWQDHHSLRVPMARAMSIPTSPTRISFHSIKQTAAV
T2 sequence (P24387 whole entry): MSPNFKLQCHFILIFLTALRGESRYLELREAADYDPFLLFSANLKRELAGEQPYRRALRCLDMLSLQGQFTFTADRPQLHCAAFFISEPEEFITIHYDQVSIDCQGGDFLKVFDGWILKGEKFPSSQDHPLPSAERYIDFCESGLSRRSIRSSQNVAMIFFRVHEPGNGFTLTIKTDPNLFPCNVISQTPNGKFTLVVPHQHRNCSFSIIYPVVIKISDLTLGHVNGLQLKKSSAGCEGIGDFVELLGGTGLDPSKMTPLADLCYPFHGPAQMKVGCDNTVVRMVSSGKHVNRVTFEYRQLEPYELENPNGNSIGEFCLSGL

[8] = blockers of CRF-binding protein–CRF-R2 complex – cell-based, uHTS hits, 384-well, dose response (AID 651639); type: functional, Homo sapiens; settings: read-out: IC50_Mean
[9] = target: T2, Corticotropin-releasing factor receptor 2/Corticotropin-releasing factor-binding protein; test: activators of CRF receptor 2 with binding protein – uHTS hits, confirmation (AID 602473); type: functional; settings: read-out: EC50_Mean
[10] = microbe, parasite or virus in culture; type: functional; settings: Mycobacterium tuberculosis
[11] = target: T3, Microphthalmia-associated transcription factor (Homo sapiens, UniProt O75030); test: reducers of TRPM1 reporter luminescence, concentration series – cell-based, SK-MEL-5, cherry-picked, set 3, MITF inhibitor project, dose response (AID 493073); type: functional;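 also: SK-MEL-5 melanoma cells with luciferase driven by the MITF target TRPM1 promoter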
T3 sequence (O75030 whole entry): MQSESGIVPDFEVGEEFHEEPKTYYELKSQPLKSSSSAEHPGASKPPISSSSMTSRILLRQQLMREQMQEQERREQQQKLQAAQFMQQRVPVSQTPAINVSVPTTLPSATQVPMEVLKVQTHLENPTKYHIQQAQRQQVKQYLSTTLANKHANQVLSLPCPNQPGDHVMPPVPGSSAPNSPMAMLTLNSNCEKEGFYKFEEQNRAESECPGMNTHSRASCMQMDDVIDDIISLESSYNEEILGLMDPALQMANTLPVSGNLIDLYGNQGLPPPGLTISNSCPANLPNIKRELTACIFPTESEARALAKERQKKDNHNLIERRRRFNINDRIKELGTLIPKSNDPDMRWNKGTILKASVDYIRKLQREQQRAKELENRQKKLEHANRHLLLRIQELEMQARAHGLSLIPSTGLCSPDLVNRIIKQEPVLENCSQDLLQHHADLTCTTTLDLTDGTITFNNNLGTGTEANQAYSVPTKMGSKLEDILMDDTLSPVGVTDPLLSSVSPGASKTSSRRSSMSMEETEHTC

[12] = target: T4, Sentrin-specific protease 8 (Homo sapiens, UniProt Q96LD8); test: inhibition of human SENP8 cleavage activity – biochemical, luminescence, SAR follow-up (AID 504501); type: functional
T4 sequence (Q96LD8 whole entry): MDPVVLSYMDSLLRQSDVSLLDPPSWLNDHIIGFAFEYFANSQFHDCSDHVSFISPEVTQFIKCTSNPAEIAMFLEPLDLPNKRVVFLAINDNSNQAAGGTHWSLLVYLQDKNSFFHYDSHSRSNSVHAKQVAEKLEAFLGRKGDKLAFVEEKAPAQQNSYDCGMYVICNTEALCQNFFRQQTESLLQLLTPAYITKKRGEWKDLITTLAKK

Caspase-3 = target: T5, Caspase-3 (Homo sapiens, UniProt P42574); test: SAR Analysis of small molecule inhibitors of Sentrin-specific proteases (SENPs) using a Caspase-3 Selectivity assay. [Related pubchem assays (depositor defined):AID2540, AID2599, AID434973, AID489001]; type: functional
T5 sequence (P42574 whole entry): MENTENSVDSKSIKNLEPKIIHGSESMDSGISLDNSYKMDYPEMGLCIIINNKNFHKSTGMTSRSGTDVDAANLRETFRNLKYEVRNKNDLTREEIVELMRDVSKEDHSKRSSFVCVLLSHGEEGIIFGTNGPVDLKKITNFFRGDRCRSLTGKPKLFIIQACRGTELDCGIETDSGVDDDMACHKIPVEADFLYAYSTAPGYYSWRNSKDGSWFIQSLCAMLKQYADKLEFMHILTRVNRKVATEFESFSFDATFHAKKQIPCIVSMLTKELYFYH

[13] = target: T6, Sentrin-specific protease 6 (Homo sapiens, UniProt Q9GZR1); test: SAR Analysis of small molecule inhibitors of Sentrin-specific protease 6 (SENP6) using a Luminescent assay. [Related pubchem assays (depositor defined):AID2582, AID2599]; type: functional
T6 sequence (Q9GZR1 whole entry): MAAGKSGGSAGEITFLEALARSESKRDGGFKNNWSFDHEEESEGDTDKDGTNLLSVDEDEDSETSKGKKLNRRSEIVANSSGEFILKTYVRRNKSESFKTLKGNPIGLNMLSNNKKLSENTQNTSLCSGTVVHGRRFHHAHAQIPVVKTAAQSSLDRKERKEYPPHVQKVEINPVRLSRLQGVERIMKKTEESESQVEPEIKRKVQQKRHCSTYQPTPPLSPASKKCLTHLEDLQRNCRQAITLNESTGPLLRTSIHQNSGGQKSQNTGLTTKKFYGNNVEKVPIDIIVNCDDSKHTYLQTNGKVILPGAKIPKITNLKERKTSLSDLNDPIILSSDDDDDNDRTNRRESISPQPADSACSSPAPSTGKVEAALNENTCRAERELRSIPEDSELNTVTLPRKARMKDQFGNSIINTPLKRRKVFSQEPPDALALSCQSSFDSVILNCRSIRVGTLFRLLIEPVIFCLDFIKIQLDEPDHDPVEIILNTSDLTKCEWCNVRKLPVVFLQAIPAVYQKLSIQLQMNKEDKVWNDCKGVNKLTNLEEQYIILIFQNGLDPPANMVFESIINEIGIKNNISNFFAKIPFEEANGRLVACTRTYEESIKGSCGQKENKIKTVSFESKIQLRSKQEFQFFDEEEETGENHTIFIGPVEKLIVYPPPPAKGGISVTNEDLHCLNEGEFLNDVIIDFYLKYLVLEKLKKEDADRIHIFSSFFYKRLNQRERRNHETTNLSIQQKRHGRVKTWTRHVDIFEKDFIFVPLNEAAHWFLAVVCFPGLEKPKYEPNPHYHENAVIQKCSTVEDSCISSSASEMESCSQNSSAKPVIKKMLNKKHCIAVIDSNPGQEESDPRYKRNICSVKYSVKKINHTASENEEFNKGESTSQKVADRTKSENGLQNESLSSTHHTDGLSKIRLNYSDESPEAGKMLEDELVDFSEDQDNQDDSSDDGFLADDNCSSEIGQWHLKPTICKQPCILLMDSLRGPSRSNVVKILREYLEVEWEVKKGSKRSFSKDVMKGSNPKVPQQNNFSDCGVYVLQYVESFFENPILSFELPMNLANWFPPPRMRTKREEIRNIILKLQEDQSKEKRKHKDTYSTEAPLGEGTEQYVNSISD

[14] = A Cell Based Secondary Assay To Explore Cytotoxicity of Compounds that Sensitize Mycobacterium Tuberculosis to Beta-Lactam Antibiotics.; type: functional
Interleukin-8 [15] = target: T7, Interleukin-8 (Homo sapiens, UniProt P10145); test: Dose Response confirmation of uHTS small molecule hits for cystic fibrosis induced NFkb Inhibitors in a TNFa-induced IL8 counterscreen.; type: functional; settings: read-out: IC50_Mean
T7 sequence (P10145 whole entry): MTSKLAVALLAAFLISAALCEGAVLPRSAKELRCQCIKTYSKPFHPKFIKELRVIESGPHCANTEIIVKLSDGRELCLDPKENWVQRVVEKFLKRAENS

Interleukin-8 [16] = target: T7, Interleukin-8; test: Dose Response confirmation of uHTS small molecule hits for cystic fibrosis induced NFkb Inhibitors in a PAF-induced IL8 counterscreen.; type: functional; settings: read-out: IC50_Mean
HEK293 = test: EBV LMP1 TES2 canonical NF-kB signalling blockers – cell-based, HEK293, luciferase, cherry-pick, dose response (AID 588343); type: functional; settings: Homo sapiens

Sequence of Steroidogenic factor 1 (Q13285 whole entry): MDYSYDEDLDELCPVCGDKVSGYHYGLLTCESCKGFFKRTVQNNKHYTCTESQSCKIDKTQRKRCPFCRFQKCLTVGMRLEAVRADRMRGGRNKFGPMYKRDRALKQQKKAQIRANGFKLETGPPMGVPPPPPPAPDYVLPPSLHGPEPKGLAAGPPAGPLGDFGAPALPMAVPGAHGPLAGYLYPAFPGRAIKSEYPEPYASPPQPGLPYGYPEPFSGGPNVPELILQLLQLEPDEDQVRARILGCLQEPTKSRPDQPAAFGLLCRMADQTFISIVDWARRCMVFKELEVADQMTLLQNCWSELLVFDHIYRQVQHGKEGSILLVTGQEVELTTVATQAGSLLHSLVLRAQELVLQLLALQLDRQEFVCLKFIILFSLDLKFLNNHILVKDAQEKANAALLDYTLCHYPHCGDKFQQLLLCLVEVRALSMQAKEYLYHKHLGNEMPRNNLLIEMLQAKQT
Sequence of Adenosylmethionine-8-amino-7-oxononanoate aminotransferase (P9WQ81 whole entry): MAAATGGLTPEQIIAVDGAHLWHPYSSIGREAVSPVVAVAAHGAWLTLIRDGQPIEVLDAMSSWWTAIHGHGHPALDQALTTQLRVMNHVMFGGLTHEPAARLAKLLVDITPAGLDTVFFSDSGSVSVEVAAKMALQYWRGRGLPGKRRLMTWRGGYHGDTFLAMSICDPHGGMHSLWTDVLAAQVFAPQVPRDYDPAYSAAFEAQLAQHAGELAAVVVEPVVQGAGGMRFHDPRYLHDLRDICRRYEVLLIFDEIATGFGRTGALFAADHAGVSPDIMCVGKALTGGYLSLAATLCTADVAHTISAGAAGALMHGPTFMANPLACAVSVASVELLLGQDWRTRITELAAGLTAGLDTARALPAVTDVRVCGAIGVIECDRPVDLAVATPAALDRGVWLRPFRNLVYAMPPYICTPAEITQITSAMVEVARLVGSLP
Sequence of Nuclear receptor subfamily 5 group A member 2 (O00482 whole entry): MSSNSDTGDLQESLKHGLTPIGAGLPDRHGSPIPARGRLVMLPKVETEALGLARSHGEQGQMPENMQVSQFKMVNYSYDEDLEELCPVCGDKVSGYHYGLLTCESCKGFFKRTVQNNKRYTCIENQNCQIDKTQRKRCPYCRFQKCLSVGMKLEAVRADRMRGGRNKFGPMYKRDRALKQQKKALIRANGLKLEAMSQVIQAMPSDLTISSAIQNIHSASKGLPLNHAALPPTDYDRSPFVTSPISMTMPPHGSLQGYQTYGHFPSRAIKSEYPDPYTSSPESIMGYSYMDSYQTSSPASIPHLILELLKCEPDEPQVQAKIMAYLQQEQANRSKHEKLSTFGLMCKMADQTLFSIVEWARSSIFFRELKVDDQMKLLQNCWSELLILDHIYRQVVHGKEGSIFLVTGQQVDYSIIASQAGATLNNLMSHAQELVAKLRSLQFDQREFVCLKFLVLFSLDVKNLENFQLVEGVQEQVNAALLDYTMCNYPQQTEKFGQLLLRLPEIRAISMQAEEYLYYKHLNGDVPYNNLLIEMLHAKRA
Sequence of Nonstructural protein 1 (Q194T2 whole entry): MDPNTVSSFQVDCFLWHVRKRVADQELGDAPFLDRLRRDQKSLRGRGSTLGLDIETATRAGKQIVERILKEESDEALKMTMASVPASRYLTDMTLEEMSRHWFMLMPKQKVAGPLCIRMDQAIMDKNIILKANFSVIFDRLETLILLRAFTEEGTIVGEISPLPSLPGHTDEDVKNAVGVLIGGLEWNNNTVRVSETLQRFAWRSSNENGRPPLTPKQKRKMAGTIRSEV

Cc1cc(Br)cc(Br)c1OCC(=O)NNC(=O)Nc1ccccc1
IC50 [1]: 83.3 µM (inactive)
IC50 [2]: 119 µM (inactive)

O=C(CSc1ccc2nnc(-c3ccccn3)n2n1)Nc1nccs1
AC50 [3]: 76.4 µM (active)
IC50 (Nonstructural protein 1): 43.5 µM (active)

Fc1ccc2[nH]c3c(NCCN4CCOCC4)ncnc3c2c1
AC50 [4]: 14.9 µM (active)

COC(=O)c1ccc(N2CCCCC2)c(NC(=O)c2ccco2)c1
IC50 [5]: 18.7 µM (inactive)
IC50 [6]: 6.04 µM (active)
IC50 (Steroidogenic factor 1): 3.89 µM (active)

CC1=NN(C(=O)c2ccc(Br)cc2)C(O)(C(F)(F)OC(F)(F)F)C1 (stereo not drawn)
IC50 [7]: 4.84 µM (active)
IC50 [8]: > 20 µM (inactive)
EC50 [9]: 46 µM (active)

O=C(NC1CCCC(C(F)(F)F)C1)c1ccc([N+](=O)[O-])o1 (stereo not drawn)
IC50 [5]: 35.9 µM (inactive)
CC50 [10]: 8.8 µM (active)
IC50 [6]: 23.5 µM (inactive)
IC50 (Steroidogenic factor 1): 0.772 µM (active)
AC50 [11]: 11.2 µM (active)

COc1ccc(C(=O)Nc2ccc3ccccc3c2)cc1OC
IC50 [12]: > 99 µM (inactive)
IC50 (Caspase-3): 14.9 µM (active)
IC50 [13]: > 99 µM (inactive)

Cc1ccc([C@H]2C(C(=O)O)=CC[C@@H](c3ccc(Cl)cc3)N2S(=O)(=O)c2ccc(C)cc2)cc1
IC50 [7]: 19.8 µM (active)
IC50 [8]: > 20 µM (inactive)
EC50 [9]: 25.4 µM (active)

O=C(Nc1ccc2snnc2c1)N1CCOCC1
AC50 [4]: 8.02 µM (active)

O=C(Nc1nnc(-c2ccco2)o1)c1ccc(S(=O)(=O)N2CCOCC2)cc1
AC50 [3]: 117 µM (active)
CC50 [14]: > 40 µM (active)

c1nc(NCc2ccc3c(c2)OCO3)c2cc(-c3ccoc3)ccc2n1
IC50 (Interleukin-8 [15]): > 79 µM (inactive)
IC50 (Interleukin-8 [16]): 1.66 µM (active)
AC50 (HEK293): 2.17 µM (active)
